# Data taken from patent publication US8865657B2, “Compositions and methods for inactivating or suppressing inflammatory cells” (New York University, priority 2005, dated 2014).
# Where two headings read alike, the source gives them in different places.
# Tests used:
# Kupffer cells [1] = assay: cAMP radioimmunoassay, intracellular cAMP in Kupffer cells; type: cell-based, rat
# Method: Liver cell isolation. […] The nonparenchymal cell-containing supernatant was saved.
# Cell culture. […] HepG2 cells were used on day 3 after plating.
# Cell treatment. […] Role of calcium and cyclic AMP. […] J Immunol 174: 2981-2989). […] IBMX was dissolved in dimethyl sulphoxide (DMSO).
# cAMP radioimmunoassay. For cAMP determination, liver cell cultures were incubated in culture medium without FCS at 37° C. for 0-90 min. The cultures were then placed on ice, and the reaction was stopped by aspiration of the incubation medium followed by the addition of 1 ml of ice cold 65% (vol/vol) ethanol. The cells were scraped into Eppendorf tubes and centrifuged at 10000 g for 10 min at 4° C. The supernatants were dried in SC110 Speedvac Concentrator (Savant, Farmingdale, N.Y.) at room temperature, and the dried extracts were dissolved in assay buffer for cAMP determination with cAMP [^125I] Direct Biotrak Assay from Amersham Biosciences (Piscataway, N.J.), according to the instructions of the manufacturer. Samples were analyzed with a Beckman LS 6000 scintillation counter. The cAMP level in each sample was normalized to the protein concentration and expressed as fmol/μg of protein. Ethanol-precipitated cell pellets were diluted with 0.15 M NaOH and the protein concentration was measured with the Micro BCA Protein Assay Kit (Pierce Chemical Co., Rockford, Ill.) according to manufacturer's instructions.
# Kupffer cells [2] = assay: Zymosan-induced respiratory burst (ROS) in Kupffer cells, luminol- or lucigenin-enhanced chemiluminescence
# From the text: Liver cell isolation. Liver cells were isolated from female Sprague Dawley rats (230-250 g). Livers were perfused with collagenase as described by Neufeld (Neufeld DS (1997) Isolation of rat liver hepatocytes. Methods in Molecular Biology, Vol 75: Basic Cell Culture Protocols 75: 145-151). Subsequently, liver cells were purified by a combined differential and Percoll gradient centrifugation using a Sorvall HS4 swinging bucket rotor (Smedsrod B, Pertoft H (1985) Preparation of pure hepatocytes and reticuloendothelial cells in high yield from a single rat liver by means of Percoll centrifugation and selective adherence. J.Leukocyte Biol 38: 213-230). After filtration through a 100-μm mesh polypropylene filter (Spectra/Mesh; Spectrum, Laguna Hills, Calif.), the cell suspension was centrifuged for 5 minutes at 50 g resulting in a hepatocyte-enriched pellet and a nonparenchymal cell-enriched supernatant. The nonparenchymal cell-containing supernatant was saved. The pellet was resuspended in ice-cold phosphate-buffered saline (PBS) and mixed in an equal volume of PBS-buffered isotonic Percoll. The gradient was centrifuged for 10 minutes at 50 g. The pellet was resuspended in PBS, centrifuged again, and the final pellet was resuspended in RPMI 1640 medium containing 10% FCS. The nonparenchymal cell-enriched supernatants were centrifuged for 15 minutes at 900 g. The pellet was resuspended in ice-cold PBS, layered over a 2-cushion Percoll gradient (Smedsrod B, Pertoft H (1985) Preparation of pure hepatocytes and reticuloendothelial cells in high yield from a single rat liver by means of Percoll centrifugation and selective adherence. J.Leukocyte Biol 38: 213-230) and centrifuged for 30 minutes at 900 g. The intermediate zone, containing mostly liver endothelial cells, and the bottom cushion, containing mostly Kupffer cells, were saved, mixed with PBS, and centrifuged for 15 minutes at 900 g. The pellet was resuspended in PBS with 1% FCS and the cells further separated into various fractions by centrifugal counterflow elutriation (Knook D L, Sleyster E C (1976) Separation of Kupffer and endothelial cells of the rat liver by centrifugal elutriation. Exp Cell Res 99: 444-449) using the Beckman Coulter JE-5.0 elutriator rotor supplied with a Sanderson chamber (Beckman Coulter, Palo Alto, Calif. USA). The cell suspension was introduced into the elutriator at a flow rate of 12 ml/min, and the elutriator speed set to 3250 rpm. Endothelial cells were obtained at a 32 ml/min flow rate, whereas Kupffer cells were collected at 70 ml/min. The cells were centrifuged at 200 g and resuspended in RPMI-1640 medium containing 10% fetal calf serum. The cell purity and viability were above 95% as determined by peroxidase stain and trypan blue exclusion.
# Cell culture. Kupffer cells were seeded into 96-well microtiter plates (0.25×10^6 cells/well) or 24-well plates (1.0×10^6 cells/well). Endothelial cells were plated on 24-well plates (1.5×10^6 cells/well), which had been previously coated with type I collagen (Sigma, St. Louis, Mo.). […] All types of cells were cultivated in RPMI 1640 medium supplemented with 10% fetal calf serum (FCS), 25 mM HEPES, and antibiotics (100 U/ml penicillin G and 100 μg/ml streptomycin sulfate) at 37° C. in 5% CO2. Nonadherent cells were removed after 1 h by replacing medium, and the cells were cultured in the same medium for 18 h and then in RPMI-1640 without FCS for 6 h.
# Cell treatment. To study the effect of CSP on cell signaling, the cells were incubated with different concentration of CSP for 0-90 min at 37° C. in 5% CO2. Before use, CSP was dialyzed extensively with 150 mM NaCl, 10 mM HEPES, pH 7.4 and diluted in culture medium.
structure (smiles),measurement,setting,value
"[O-][Cl+2]([O-])O [Chlorate, sodium chlorate, reference compound]",inhibition at 20000 µM,"Kupffer cells [1]; Rattus norvegicus, read-out: inhibition of the CSP-induced generation of cAMP",20%
"Nc1ncnc2c1ncn2C1CCCO1 (stereo not drawn) [SQ 22,536, 9-(Tetrahydro-2-furanyl)-9H-purin-6-amine]",effect on the inhibition of the zymosan-induced respiratory burst by sporozoites,"Kupffer cells [2]; 100 μM SQ 22,536 with P. yoelii sporozoites",abrogated the inhibitory effect
"CC(C)Cn1c(=O)n(C)c(=O)c2[nH]cnc21 [IBMX, 3-isobutyl-1 methylxanthine, reference compound]",inhibition at 1000 µM,"Kupffer cells [2]; Rattus norvegicus, read-out: inhibition of the zymosan-induced respiratory burst",67%
same,effect on the CSP-induced generation of cAMP,"Kupffer cells [1]; added 10 min before 50 nM CSP (30 min), RAP 500 nM",did not reduce
C[C@]12N[C@H](Cc3ccccc31)c1ccccc12 [MK-801],effect on the CSP-mediated inhibition of the respiratory burst,Kupffer cells [2],had no effect
"CCCC(=O)Nc1ncnc2c1ncn2[C@@H]1O[C@@H]2COP(=O)(O)O[C@H]2[C@H]1O [6-MB-cAMP, N6-monobutyryladenosine-3′,5′-cAMP]",effect on zymosan-induced ROS formation,"Kupffer cells [2]; 3 mM, pretreated 40 minutes, luminol-enhanced chemiluminescence",had no effect
"CCCC(=O)Nc1ncnc2c1ncn2[C@@H]1O[C@@H]2COP(=O)(O)O[C@H]2[C@H]1OC(=O)CCC [db-cAMP, dibutyryl cAMP]",inhibition of the zymosan-induced respiratory burst,"Kupffer cells [2]; 1 mM IBMX or 1 mM db-cAMP, luminol-enhanced chemiluminescence",22%
"CO[C@@H]1[C@@H]2OP(=O)(O)OC[C@H]2O[C@H]1n1c(Sc2ccc(Cl)cc2)nc2c(N)ncnc21 [8-CPT-2-Me-cAMP, 8-[4-chlorophenylthio]-2′-O-methyladenosine-3′,5′-cAMP]",effect on zymosan-induced ROS formation,Kupffer cells [2],inhibited
"Cl.Cl.O=S(=O)(NCCNCC=Cc1ccc(Br)cc1)c1cccc2cnccc12 [H-89, N-[2-(p-Bromocinnamylamino)ethyl]-5-isoquinolinesulfonamide dihydrochloride]",effect on the CSP-mediated inhibition of the respiratory burst,Kupffer cells [2],failed to prevent
